{"source": "patent US7416840B2", "about": "“Replication of hepatitis C virus in non-hepatic epithelial and mouse hepatic cells” (priority 2002, dated 2008)", "key": {"[1]": {"test_system": "IFN-α response against the HCV replicon", "assay_type": "cell-based, human", "settings": "for viral RNA levels versus cells treated with IFN-α alone: 5 μM lactacystin or 1 μM epoxomicin 1 h before IFN-α for 6 h, both time points; for IFN response against HCV when inhibitor is added after induction: IFN-α for 10 h, then inhibitor for 12 h; for reduction of HCV RNA levels by IFN-α in the presence of proteasome inhibitor: inhibitor 1 h before IFN-α 100 IU/ml for 6 h, then 12 h"}, "HCV subgenomic replicons [2]": {"test_system": "HCV subgenomic replicons", "assay_type": "cell-based"}, "HCV subgenomic replicons [3]": {"test_system": "HCV subgenomic replicons", "assay_type": "cell-based", "remark": "listed apart in the source"}, "Mx-1 gene": {"test_system": "Mx-1 gene", "assay_type": "cell-based, human", "settings": "GS4.1 cells, with IFN-α"}, "IFN-β gene": {"test_system": "IFN-β gene", "assay_type": "cell-based, human", "settings": "for expression of IFN-β: IFN-α alone"}, "Kunjin virus replicons": {"test_system": "Kunjin virus replicons", "assay_type": "cell-based", "settings": "KUNCD20 cells, 0.01 to 160 IU of IFN-α/ml, 72 h"}, "KUNCD20 cells": {"test_system": "KUNCD20 cells", "test": "Cell death in IFN-α-treated KUNCD20 cells, light microscopy or annexin V staining", "assay_type": "cell-based, Homo sapiens (human)", "text": "To address this problem, the IFN response against HCV in SL1 cells was compared with that against the flavivirus Kunjin virus in HeLa cells. For this purpose a pool of HeLa cells, KUNCD20, expressing Kunjin virus subgenomic replicons lacking the structural genes, similar to the HCV subgenomic replicons was established (Khromykh, A. A., and E. G. Westaway. 1997. J. Virol. 71:1497-1505). The Kunjin virus RNA levels in these cells were approximately fivefold higher than those observed with HCV in SL1 cells. […] Importantly, cell death in IFN-α-treated KUNCD20 cells was not detected either by light microscopy or annexin V staining (results not shown)."}, "eIF-2α": {"test_system": "eIF-2α", "assay_type": "cell-based, human", "settings": "Huh7, GS4.1, HeLa, SL1 cells; 100 IU of IFN-α/ml 12 h; poly(I:C) transfection 3 h"}, "SL1 cells": {"test_system": "SL1 cells", "assay_type": "cell-based, Homo sapiens (human)"}, "HCV": {"test_system": "HCV", "settings": "HCV genotypes 2 and 3; cited from earlier work"}}, "note": "Entries after “also recorded” stand apart in the source; their conditions may differ. Read-outs that look alike come from different tables or passages of the source.", "data": [{"compound": "Nc1ncc2[nH]cnc2n1", "note": "[2-AP, 2-aminopurine]", "values": [{"measurement": "inhibition of the IFN-α response against HCV replicon", "setting": "[1]; GS4.1 (Huh7) cells", "result": "did not block the IFN response against HCV; also recorded: no measurable effect on the IFN response against the HCV replicon"}, {"measurement": "apoptosis", "setting": "HeLa cells; HeLa cells, treatment for more than 12 h", "result": "induced apoptosis"}]}, {"compound": "C[C@@]1(O)[C@H](O)[C@@H](CO)O[C@H]1n1cnc2c(N)ncnc21", "note": "[2CMA, 2′-C-methyladenosine]", "values": [{"measurement": "viral RNA (vRNA), anti-HCV activity", "setting": "HCV subgenomic replicons [2]; SL1 (HeLa) cells, 10 μM, harvested at 6, 12, 24, 48, 72 hours", "result": "effectively inhibits HCV"}, {"measurement": "viral RNA (vRNA), anti-HCV activity", "setting": "HCV subgenomic replicons [3]; GS4.1 (Huh7) cells, 10 μM, harvested at 6, 12, 24, 48, 72 hours", "result": "effectively inhibits HCV"}]}, {"compound": "Nc1nc(=O)n([C@@H]2O[C@H](CO)[C@@H](O)[C@H]2O)cc1O", "note": "[5-OH-cytidine]", "values": [{"measurement": "HCV RNA band intensity, antiviral activity", "setting": "HCV subgenomic replicons [2]; SL1 (HeLa) cells, indicated amounts, 72 hours", "result": "effectively inhibits HCV replication"}, {"measurement": "HCV RNA band intensity, antiviral activity", "setting": "HCV subgenomic replicons [3]; GS4.1 (Huh7) cells, indicated amounts, 72 hours", "result": "effectively inhibits HCV replication"}]}, {"compound": "C[C@@H]1C[C@@H]([C@H](O)CC2CC(=O)NC(=O)C2)C(=O)[C@@H](C)C1", "note": "[Cycloheximide]", "values": [{"measurement": "inhibition of the IFN-α response against HCV replicon", "setting": "[1]; GS4.1 (Huh7) cells", "result": "decline of viral RNA levels was reduced"}]}, {"compound": "CC[C@H](C)[C@H](NC(=O)[C@H]([C@@H](C)CC)N(C)C(C)=O)C(=O)N[C@H](C(=O)N[C@@H](CC(C)C)C(=O)[C@@]1(C)CO1)[C@@H](C)O", "note": "[Epoxomicin]", "values": [{"measurement": "viral RNA levels versus cells treated with IFN-α alone", "setting": "[1]; GS4.1 cells", "result": "significantly higher"}, {"measurement": "IFN response against HCV when inhibitor is added after induction", "setting": "[1]; GS4.1 cells", "result": "the IFN response against HCV remained effective"}, {"measurement": "reduction of HCV RNA levels by IFN-α in the presence of proteasome inhibitor", "setting": "[1]; GS4.1 cells", "result": 30, "unit": "%"}, {"measurement": "induction of IFN-induced Mx-1 (Mx-A) mRNA", "setting": "Mx-1 gene", "result": "did not inhibit induction of Mx-A"}]}, {"compound": "O=c1c(-c2ccc(O)cc2)coc2cc(O)cc(O)c12", "note": "[Genistein, genistein]", "values": [{"measurement": "inhibition of the IFN-α response against HCV replicon", "setting": "[1]; GS4.1 (Huh7) cells", "result": "antagonized the IFN-α response against the HCV replicon"}, {"measurement": "inhibition of the IFN response against HCV at increased drug concentration", "setting": "[1]; GS4.1 cells, concentration raised from 100 to 300 μM", "result": "complete inhibition of the IFN response against HCV"}, {"measurement": "induction of IFN-induced Mx-1 (Mx-A) mRNA", "setting": "Mx-1 gene", "result": "suppressed the induction of the IFN-induced Mx-1 gene"}]}, {"compound": "CC(=O)N[C@@H](CSC(=O)[C@]1([C@@H](O)C(C)C)NC(=O)[C@H](C)[C@@H]1O)C(=O)O", "note": "[Lactacystin, lactacystin]", "values": [{"measurement": "viral RNA levels versus cells treated with IFN-α alone", "setting": "[1]; GS4.1 cells", "result": "significantly higher"}, {"measurement": "IFN response against HCV when inhibitor is added after induction", "setting": "[1]; GS4.1 cells", "result": "the IFN response against HCV remained effective"}, {"measurement": "reduction of HCV RNA levels by IFN-α in the presence of proteasome inhibitor", "setting": "[1]; GS4.1 cells", "result": 30, "unit": "%"}, {"measurement": "HCV RNA levels, drug alone", "setting": "HCV subgenomic replicons [3]; GS4.1 cells, higher doses, without IFN-α", "result": "slight reduction of HCV RNA levels"}, {"measurement": "induction of IFN-induced Mx-1 (Mx-A) mRNA", "setting": "Mx-1 gene", "result": "did not inhibit induction of Mx-A"}]}, {"compound": "C[S+]([O-])c1ccc(-c2nc(-c3ccncc3)c(-c3ccc(F)cc3)[nH]2)cc1", "note": "(stereo not shown) [SB 203580]", "values": [{"measurement": "inhibition of the IFN-α response against HCV replicon", "setting": "[1]; GS4.1 (Huh7) cells", "result": "did not inhibit the IFN response at detectable levels"}]}, {"compound": "O=C([O-])c1ccccc1O.[Na+]", "note": "[Sodium salicylate, sodium salicylate]", "values": [{"measurement": "inhibition of the IFN-α response against HCV replicon", "setting": "[1]", "result": "did not inhibit the IFN response at detectable levels"}]}, {"compound": "IFN-α", "values": [{"measurement": "expression of IFN-β", "setting": "IFN-β gene; HeLa cells", "result": "not in HeLa cells"}, {"measurement": "expression of IFN-β", "setting": "IFN-β gene; SL1 cells", "result": "could be induced"}, {"measurement": "Kunjin virus replicon RNA, inhibition of viral replication", "setting": "Kunjin virus replicons", "result": "only slightly inhibited viral replication"}, {"measurement": "IC50 of IFN-α (reduction of virus replication)", "setting": "HCV subgenomic replicons [2]; HeLa cell lines such as SL1, 72 h", "result": "~0.1", "unit": "IU/ml"}, {"measurement": "fold lower IC50 in HeLa cell lines than in Huh7-derived cell lines", "setting": "HCV subgenomic replicons [2]; HeLa vs Huh7-derived cell lines", "result": "approximately 10 fold"}, {"measurement": "cell death", "setting": "KUNCD20 cells", "result": "not detected"}, {"measurement": "drop of HCV RNA levels", "setting": "HCV subgenomic replicons [3]; GS4.1 cells, IFN-α 100 IU/ml for 6 h, within 18 h", "result": 70, "unit": "%"}, {"measurement": "apoptosis after IFN-α treatment", "setting": "HeLa cells; normal HeLa cells", "result": "did not undergo apoptosis"}, {"measurement": "eIF-2α-P levels", "setting": "eIF-2α", "result": "did not induce eIF-2α-P levels"}, {"measurement": "cell death", "setting": "SL1 cells; SL1 and other HeLa derived cell lines, more than 30 IU of IFN-α/ml, between 6 and 20 h post treatment", "result": "induced cell death in a significant fraction of cells"}, {"measurement": "fraction of apoptotic cells (annexin V-FITC positive)", "setting": "SL1 cells; SL1 cells, 100 IU of IFN-α/ml, 24 h, flow cytometry", "result": "more than 30%"}, {"measurement": "response to IFN-α therapy", "setting": "HCV", "result": "≤ 80", "unit": "%"}]}, {"compound": "ZVAD-fluoromethyl ketone [ZVAD-FMK]", "values": [{"measurement": "prevention of IFN-α-induced cell death (apoptosis)", "setting": "SL1 cells; SL1 cells, 100 IU of IFN-α/ml with 20 μM ZVAD-FMK", "result": "could be prevented"}]}, {"compound": "poly(I:C)", "values": [{"measurement": "IFN-β transcription", "setting": "IFN-β gene; HeLa and SL1 cells, poly(I:C) alone", "result": "induced"}, {"measurement": "induction of IFN-β mRNA", "setting": "IFN-β gene; Huh7, GS4.1 and other Huh7-derived cells, primed with IFN-α then transfected with poly(I:C)", "result": "only a weak induction of IFN-β was observed"}, {"measurement": "eIF-2α-P levels", "setting": "eIF-2α", "result": "augmented eIF-2α-P levels"}]}]}
